From patent publication US20250270206A1, “COMPOSITIONS AND METHODS FOR INHIBITION OF RAS” (TheRas, Inc., priority 2022, published 2025)
pIC50: −log10 of the molar value.

What was measured:
[1] = target: T1, Avi-KRAS G12C (1-169) GppNHp/RAF1 RBD-3×FLAG (52-151) (Homo sapiens, UniProt P01116, G12C); experiment: KRAS G12C-effector (RAF1 RBD) protein:protein interaction HTRF disruption assay; type: biochemical; conditions: PPI HTRF
T1 construct: Avi-KRAS G12C (1-169) GppNHp
Description: A protein:protein interaction (PPI) Homogeneous Time Resolved Fluorescence (HTRF) assay was used to determine the effectiveness of compounds of the present disclosure in disrupting KRAS G12C protein and effector (RAF1) binding.
The HTRF assay used the following reagents and proteins: 50 nM Avi-KRAS G12C (1-169) GppNHp/RAF1 RBD-3×FLAG (52-151); 75 nM Avi-RAF1 RBD-3×FLAG; Assay Buffer: 50 mM Tris pH 7.5, 100 mM NaCl, 5 mM MgCl2, 0.1% BSA, 0.01% Tween 20, 10% DMSO; Bead Buffer: 50 mM Tris pH 7.5, 0.01% Tween 20; Assay volume: 20 μL (384 well plate-low volume format); and Compound titration: 30-0.02 μM, 3× dilution series.
The HTRF assay employed the following protocol:
Compounds were dispensed in assay plate (384-well, Grenier Bione #784075) using Echo (model 555) with dose response settings: 200 nL final volume, titration from 100 μM as a 10-point dilution series. KRAS proteins were prepared in assay buffer, and dispensed on plates, 5 μL per well, then incubated for 1 h at room temperature, with 700 rpm shaking. RAF1 RBD were prepared in assay buffer, dispensed onto plates, 5 μL per well, and then incubated for 1 h at room temperature, with 700 rpm shaking. Reagent mix was then prepared and dispensed on plates, 10 μL per well, and then incubated for 1 h at room temperature, with 700 rpm shaking.
Plates were analyzed on an Envision plate reader using the following setting: Excitation 320 nm, Bandwidth 75 nm, Emission 615 nm, Bandwidth 85 nm; Gain 100%; Flashes 100; Lag 60 μs. Data was reported as percentage of activity, with DMSO as 100%. Data was plotted and analyzed using Prism 8.

[2] = target: T2, GDP-loaded KRAS4b (amino acids 1-169) G12C/C118S (Homo sapiens, UniProt P01116, C118S/G12C); experiment: MALDI-TOF MS covalent Cys12 modification, GDP-loaded KRAS G12C; type: binding; conditions: 15 minutes reaction time, 1 μM protein, 1:2.5 protein to compound ratio
T2 construct: KRAS4b (amino acids 1-169) G12C/C118S protein; made in house
Description: (§1) MALDI-TOF MS analysis was performed using 1 μM protein target, and 1:2.5 protein to compound ratio was used.
(§2) Reaction: 1 μM of GppNHp, GTP, or GDP-loaded KRAS4b (amino acids 1-169) G12C/C118S protein (produced in-house by Protein Expression Laboratory, FNLCR/Leidos Biomed) in 20 mM 4-(2-hydroxyethyl)-1-piperazineethanesulfonic acid (HEPES) buffer containing 150 mM NaCl, 1 mM MgCl2, pH 7.3 was prepared freshly before assay. Ten-μL aliquots of protein were dispensed onto low volume 384-well plate, then 375 nL DMSO, and 25 nL of tested compounds from 5 mM DMSO stocks were added to appropriate wells using ECHO 555 acoustic liquid handler (Labcyte Inc.). For each reaction/assay, three blanks were prepared by mixing 10 μL of protein solution with 400 nL DMSO. The contents of the wells were carefully mixed by aspiration, and then each plate was sealed with an adhesive cover, centrifuged at 2000 g for 1 minute, and kept in the dark at room temperature until 5 min, 15 min, 30 min, 2 h, or 6 h collections.
(§3) Target pretreatment: Before each assay MALDI target (Bruker MPT 384 ground steel BC) was pre-treated by pipetting on each spot 0.75 μL of saturated sinapinic acid in acetonitrile (ACN).
(§4) Sample preparation: At collection time point, 2 μL of reaction mixtures were pipetted out into 20 μL MALDI matrix solution (saturated solution of sinapinic acid in 1:1 ACN:water solution containing 0.75% trifluoroacetic acid (TFA)) deposited on 384 well polypropylene plate. Resulting solution was mixed by aspiration, centrifuged at 2000 g for 1 minute, then 1 μL aliquots were dispensed on pre-treated MALDI target using Beckman Coulter Biomek FX^P 96/384-Span-8 Laboratory Automation Workstation. Finally, the MALDI target was dried under mild vacuum to produce spots with fine crystalline structure.
(§5) Measurements: MALDI-TOF measurements were performed on a Bruker Daltonics rapifleX Tissuetyper TOF-TOF mass spectrometer using linear mode and mass range from 18.6 to 21.6 kDa. Detector gain was set to 3.3× (483 V), sample rate to 5 GS/s, real time smoothing to medium (175 MHz), laser smart beam pattern was set to: “MS Thin Layer M5”, and the laser frequency was 10000 Hz. Spectra were automatically collected using custom AutoXecute method. Laser power was auto adjusted using fuzzy control. The peak selection range was set to be between 19000 and 21500 Da. Peak evaluation uses half width parameter set to be smaller than 40 Da for processed spectrograms (centroid peak detection: smoothed by SavitzkyGolay algorithm using 7 m/z width and 2 cycles; baseline was subtracted using median algorithm with flatness 1 and median level 0.01). Fuzzy control used Proteins/Oligonucleotides protocol with minimum half width 1/10 times above threshold. Up to 40000 satisfactory shots were collected in 10000 shot steps. Dynamic termination was implemented to finish data collection when peak signal/noise ratio reached a value of 50.
(§6) Spectra processing: Spectra were smoothed by SavitzkyGolay algorithm using 7 m/z width and three cycles. Centroid peak detection algorithm was used with signal to noise threshold set to 6, relative intensity threshold 4%, peak width 10 m/z and median baseline subtraction using flatness of 1 and median level of 0.01. Peak intensity and area under the peak were evaluated and recorded for all peaks between 19,300 Da and 21,550 Da.
(§7) Calculation of percent modification: Percent modification was calculated as a ratio of peak height for protein modified by compound to sum of peak height of remaining protein plus peak height for protein modified by compound. If multiple modifications were observed each was calculated as a ratio of peak height for given modification versus sum of peak heights for all observed protein species. Data reported in Table 5 are from the 15 minutes reaction time point.

[3] = target: T3, GppNHp-loaded KRAS4b (amino acids 1-169) G12C/C118S (Homo sapiens, UniProt P01116, C118S/G12C); experiment: MALDI-TOF MS covalent Cys12 modification, GppNHp-loaded KRAS G12C; type: binding; conditions: 15 minutes reaction time, 1 μM protein, 1:2.5 protein to compound ratio
T3 construct: KRAS4b (amino acids 1-169) G12C/C118S protein; made in house
Description: as §1, §2, §3, §4, §5, §6, §7

[4] = tested on: pERK in NCI-H358 cells; experiment: Cell-based pERK HTRF assay; conditions: Homo sapiens, 0.5 h, 30 min incubation
Description: pERK HTRF assays (Perkin Elmer) were used to determine the effectiveness of compounds of the present disclosure in disrupting KRAS G12C protein/effector signaling in cells.
On Day 1, cells (NCI-H358) were seeded into 96-well plates at 4×10^4 cells/well in complete growth media (RPMI, 10% FBS).
On Day 2, cells were treated with compounds at 0.25% DMSO. The source plate was created with compounds diluted in media at 5-fold the final assay concentration. The compounds were run in a 9-point concentration curve starting at 75 μM, with a 3-fold dilution between concentrations. 20 μL was transferred onto the cell plates (final volume in wells was 100 μL). Plates were harvested after 30 min incubation by aspirating media and adding kit-supplied 1× supplemented lysis buffer to all wells (75 μL per well). Plates were then placed on a plate shaker and incubated at 850 rpm for an additional 30 min.
Antibody mixture solution was prepared by diluting aliquoted d2 and Eu Cryptate antibodies 1:20 in kit supplied detection buffer, then mixed the diluted antibodies solutions (1:1 v:v). 4 μL of this solution was then added to a 384-well detection plate (Perkin Elmer; 6008230).
Samples were homogenized by pipetting up and down and then transferred (16 μL of cell lysates) from the 96-well cell culture plate to two wells of the HTRF 384-well detection plate containing the antibody solution. Plates were centrifuged (524 g for 1 min) and allowed to incubate between 4 and 24 h at room temperature. Maximum signal is reached after 4 h incubation time and remains stable over a period of 24 hours. Therefore, readings can be made between 4 and 24 h of incubation. Plates were centrifuged again (524 g for 1 min) and analyzed on the EnVision plate reader using the following settings: Excitation 320 nm, Bandwidth 75 nm; Emission 615 nm, Bandwidth 85 nm; Gain 100%; Flashes 100; Lag 60 μs.

[5] = target: T4, GTP-loaded KRAS4b (amino acids 1-169) G12C/C118S (Homo sapiens, UniProt P01116, C118S/G12C); experiment: MALDI-TOF MS covalent Cys12 modification, GTP-loaded KRAS G12C; type: binding; conditions: 15 minutes reaction time, 1 μM protein, 1:2.5 protein to compound ratio
T4 construct: KRAS4b (amino acids 1-169) G12C/C118S protein; made in house
Description: as §1, §2, §3, §4, §5, §6, §7

Compound | pIC50 [1] | GDP-KRAS G12C percent of modification [2] | GppNHp-KRAS G12C percent of modification [3] | pIC50 [4] | GTP-KRAS G12C percent of modification [5]
C=CC(=O)N1CC[C@@H](N(C)c2nc(OC[C@@]34CCCN3C[C@H](F)C4)nc3c(F)c(-c4ccc(F)c5sc(N)nc45)ncc23)C1 [Compound 4] | ≥ 6.30 | A (percent of modification ≥70%) | A (percent of modification ≥70%) | < 6.00 | –
C=CC(=O)N1CCC(N(C)c2nc(OC[C@@H]3CC4(CC4)CN3C)nc3c(F)c(-c4ccc(F)c5sc(N)c(C#N)c45)ncc23)[C@H]1COC (some centres unmarked) [Compound 21] | – | A (percent of modification ≥70%) | A (percent of modification ≥70%) | 6.00 to 7.00 | A (percent of modification ≥70%)
C=CC(=O)N1CC[C@@H](N(C)c2nc(OC[C@@H]3CC4(CC4)CN3C)nc3c(F)c(-c4ccc(F)c5sc(N)c(C#N)c45)ncc23)[C@H]1COC [Compound 21] | ≥ 6.30 | – | – | – | –
C=CC(=O)N1CCC(N(C)c2nc(OC[C@@H]3CCCN3C)nc3c(F)c(-c4ccc(F)c5sc(N)c(C#N)c45)ncc23)[C@H]1C (some centres unmarked) [Compound 22] | – | A (percent of modification ≥70%) | A (percent of modification ≥70%) | 6.00 to 7.00 | A (percent of modification ≥70%)
C=CC(=O)N1CC[C@@H](N(C)c2nc(OC[C@@H]3CCCN3C)nc3c(F)c(-c4ccc(F)c5sc(N)c(C#N)c45)ncc23)[C@H]1C [Compound 22] | ≥ 6.30 | – | – | – | –
C=CC(=O)N1CCC(N(C)c2nc(OC[C@@H]3CC4(CC4)CN3C)nc3c(F)c(-c4ccc(F)c5sc(N)c(C#N)c45)ncc23)[C@H]1C (some centres unmarked) [Compound 24] | – | A (percent of modification ≥70%) | A (percent of modification ≥70%) | 6.00 to 7.00 | A (percent of modification ≥70%)
C=CC(=O)N1CC[C@@H](N(C)c2nc(OC[C@@H]3CC4(CC4)CN3C)nc3c(F)c(-c4ccc(F)c5sc(N)c(C#N)c45)ncc23)[C@H]1C [Compound 24] | ≥ 6.30 | – | – | – | –
C=CC(=O)N1CCC(N(C)c2nc(OC[C@@H]3CCCN3C)nc3c(F)c(-c4ccc(F)c5sc(N)c(C#N)c45)ncc23)[C@H]1COC (some centres unmarked) [Compound 26] | – | A (percent of modification ≥70%) | A (percent of modification ≥70%) | 6.00 to 7.00 | A (percent of modification ≥70%)
C=CC(=O)N1CC[C@@H](N(C)c2nc(OC[C@@H]3CCCN3C)nc3c(F)c(-c4ccc(F)c5sc(N)c(C#N)c45)ncc23)[C@H]1COC [Compound 26] | ≥ 6.30 | – | – | – | –
C=CC(=O)N1CCC(N(C)c2nc(OCCOC)nc3c(F)c(-c4ccc(F)c5sc(N)c(C#N)c45)ncc23)[C@H]1C (some centres unmarked) [Compound 31] | – | C (10%≤percent of modification <50%) | D (percent of modification <10%) | < 6.00 | D (percent of modification <10%)
C=CC(=O)N1CC[C@@H](N(C)c2nc(OCCOC)nc3c(F)c(-c4ccc(F)c5sc(N)c(C#N)c45)ncc23)[C@H]1C [Compound 31] | 5.30 to 6.30 | – | – | – | –
C=CC(=O)N1CCC(N(C)c2nc(OC)nc3c(F)c(-c4ccc(F)c5sc(N)c(C#N)c45)ncc23)[C@H]1C (some centres unmarked) [Compound 32] | – | C (10%≤percent of modification <50%) | D (percent of modification <10%) | < 6.00 | D (percent of modification <10%)
C=CC(=O)N1CC[C@@H](N(C)c2nc(OC)nc3c(F)c(-c4ccc(F)c5sc(N)c(C#N)c45)ncc23)[C@H]1C [Compound 32] | 4.70 to 5.30 | – | – | – | –
C=CC(=O)N1CCC(N(C)c2nc(OCCO)nc3c(F)c(-c4ccc(F)c5sc(N)c(C#N)c45)ncc23)[C@H]1C (some centres unmarked) [Compound 35] | – | C (10%≤percent of modification <50%) | D (percent of modification <10%) | < 6.00 | D (percent of modification <10%)
C=CC(=O)N1CC[C@@H](N(C)c2nc(OCCO)nc3c(F)c(-c4ccc(F)c5sc(N)c(C#N)c45)ncc23)[C@H]1C [Compound 35] | 4.70 to 5.30 | – | – | – | –
C=CC(=O)N1CCC(N(C)c2ncnc3c(F)c(-c4ccc(F)c5sc(N)c(C#N)c45)ncc23)[C@H]1C (some centres unmarked) [Compound 36] | – | C (10%≤percent of modification <50%) | D (percent of modification <10%) | < 6.00 | D (percent of modification <10%)
C=CC(=O)N1CC[C@@H](N(C)c2ncnc3c(F)c(-c4ccc(F)c5sc(N)c(C#N)c45)ncc23)[C@H]1C [Compound 36] | 4.70 to 5.30 | – | – | – | –
